Data taken from patent US20230021448A1, “COMPOUNDS AND COMPOSITIONS FOR TREATING CONDITIONS ASSOCIATED WITH STING ACTIVITY” (IFM Due, Inc., priority 2019, published 2023).

Target: T1, STING (Homo sapiens, UniProt Q86WV6, G230A/H232R/R293Q/R71H)
T1 construct: host or cells: THP1-Dual KO-IFNAR2 cells
Assay: STING reporter assay: luciferase reporter activity in THP1-Dual KO-IFNAR2 cells stimulated with 2'3'cGAMP
Type: cell-based
Conditions: 2′3′cGAMP 15 μM final, 24h, read-out: hSTING: EC50
Method: STING pathway activation by the compounds described herein was measured using THIP1-Dua1™ cells (KO-IFNAR2).
TTIP1-Dual™ KO-IFNAR2 Cells (obtained from invivogen) were maintained in RPMI, 10% FCS, 5 ml P/S, 2 mM L-glut, 10 mM Hepes, and 1 mM sodium pyruvate. Compounds were spotted in empty 384 well tissue culture plates (Greiner 781182) by Echo for a final concentration of 0.0017-100 μM. Cells were plated into the TC plates at 40 μL per well, 2×10E6 cells/mL. For activation with STING ligand, 2′3′cGAMP (MW 718.38, obtained from Invivogen), was prepared in Optimem media.
The following solutions were prepared for each 1×384 plate: • Solution A: 2 mL Optimem with one of the following stimuli: • […] • Solution B: 2 mL Optimem with 60 μL Lipofectamine 2000->Incubate 5 min at RT
2 mL of solution A and 2 ml Solution B was mixed and incubated for 20 min at room temperature (RT). 20 uL of transfection solution (A+B) was added on top of the plated cells, with a final 2′3′cGAMP concentration of 15 μM. The plates were then centrifuged immediately at 340 g for 1 minute, after which they were incubated at 37° C., 5% C02, >98% humidity for 24h. Luciferase reporter activity was then measured. EC50 values were calculated by using standard methods known in the art.
Luciferase reporter assay: 10 μL of supernatant from the assay was transferred to white 384-plate with flat bottom and squared wells. One pouch of QUANTI-Luc™ Plus was dissolved in 25 mL of water. 100 μL of QLC Stabilizer per 25 mL of QUANTI-Luc™ Plus solution was added. 50 μL of QUANTI-Luc™ Plus/QLC solution per well was then added. Luminescence was measured on a Platereader (e.g., Spectramax I3X (Molecular Devices GF3637001)).
Luciferase reporter activity was then measured. EC50 values were calculated by using standard methods known in the art.

T1 sequence (Q86WV6 whole entry R71H/G230A/H232R/R293Q): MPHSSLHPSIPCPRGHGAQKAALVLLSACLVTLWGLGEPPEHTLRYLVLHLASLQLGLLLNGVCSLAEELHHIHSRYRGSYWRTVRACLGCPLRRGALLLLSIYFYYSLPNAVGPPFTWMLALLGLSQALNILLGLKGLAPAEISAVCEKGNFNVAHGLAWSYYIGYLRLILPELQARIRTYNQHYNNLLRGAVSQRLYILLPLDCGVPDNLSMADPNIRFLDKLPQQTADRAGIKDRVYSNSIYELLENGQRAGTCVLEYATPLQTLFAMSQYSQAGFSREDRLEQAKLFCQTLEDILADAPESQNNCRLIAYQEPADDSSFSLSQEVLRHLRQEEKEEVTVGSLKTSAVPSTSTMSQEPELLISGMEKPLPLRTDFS

EC50 | SMILES
1 to 5 µM | CC(NC(=O)C(=O)Nc1c[nH]c2cc(F)c(F)cc12)c1cc(C(F)(F)F)c(Cl)cn1 (single isomer, unassigned) [Compound 260]
0.2 to 1 µM | O=C(Nc1c[nH]c2cc(F)c(F)cc12)C(=O)N[C@H]1C[C@@H](Oc2ccc(C(F)(F)F)nc2)C1 [Compound 198]
0.2 to 1 µM | CC(NC(=O)C(=O)Nc1c[nH]c2cc(F)c(F)cc12)c1cccc(OC(F)(F)F)c1 (centres unmarked) [Compound 288, N-(5,6-difluoro-1H-indol-3-yl)-N′-{1-[3-(trifluoromethoxy)phenyl]ethyl} ethanediamide]
0.2 to 1 µM | Cc1cc(NC(=O)C(=O)Nc2c[nH]c3ccccc23)cc(C(F)(F)F)c1 [Compound 183]
0.2 to 1 µM | CC(C)(C)C1CCC(NC(=O)C(=O)Nc2c[nH]c3cc(F)c(F)cc23)CC1 (centres unmarked) [Compound 191]
0.2 to 1 µM | CN(CCCNC(=O)C(=O)Nc1c[nH]c2cc(F)c(F)cc12)c1ccccc1 [Compound 307, N-(5,6-difluoro-1H-indol-3-yl)-N′-{3-[methyl(phenyl)amino]propyl}ethanediamide]
0.2 to 1 µM | O=C(NCc1ccc(C(F)(F)F)c(Cl)c1)C(=O)Nc1c[nH]c2ccc(CCO)cc12 [Compound 339, N-(3-chloro-4-(trifluoromethyl)benzyl)-N′-(5-(2-hydroxyethyl)-1H-indol-3-yl)oxalamide]
5 to 100 µM | O=C(NCCOc1cccnc1)C(=O)Nc1c[nH]c2cc(F)c(F)cc12 [Compound 290, N-(5,6-difluoro-1H-indol-3-yl)-N′-[2-(pyridin-3-yloxy)ethyl] ethanediamide]
0.2 to 1 µM | O=C(Nc1c[nH]c2cc(F)c(F)cc12)C(=O)NC1CCC(Cc2ccccc2)CC1 (centres unmarked) [Compound 122]
1 to 5 µM | CN(C(=O)CNC(=O)C(=O)Nc1c[nH]c2cc(F)c(F)cc12)c1ccccc1 [Compound 306, N-(5,6-difluoro-1H-indol-3-yl)-N′-{[methyl(phenyl)carbamoyl]methyl} ethanediamide]
0.2 to 1 µM | N#Cc1cc(F)c2[nH]cc(NC(=O)C(=O)NCc3ccc(C(F)(F)F)c(Cl)c3)c2c1 [Compound 215]
0.04 to 0.2 µM | O=C(Nc1c[nH]c2cc(F)c(F)cc12)C(=O)NC1CCC(Oc2ccc(C(F)(F)F)nc2)CC1 (centres unmarked) [Compound 224]
0.04 to 0.2 µM | O=C(NC[C@H](C(F)F)C1CCCCC1)C(=O)Nc1c[nH]c2cc(F)c(F)cc12 [Compound 136]
0.04 to 0.2 µM | O=C(Nc1c[nH]c2cc(F)c(F)cc12)C(=O)N[C@H]1CCN(c2ccccc2)C1 [Compound 127]
0.2 to 1 µM | O=C(Nc1c[nH]c2cc(F)c(F)cc12)C(=O)NC1CCC2(CCCCO2)CC1 (centres unmarked) [Compound 282]
0.2 to 1 µM | O=C(Nc1cnc2sccc2c1)C(=O)Nc1c[nH]c2cc(F)c(F)cc12 [Compound 296, N′-(5,6-difluoro-1H-indol-3-yl)-N-{thieno[2,3-b]pyridin-5-yl}ethanediamide]
0.2 to 1 µM | O=C(Nc1ccc2c(c1)oc(=O)n2Cc1ccccc1)C(=O)Nc1c[nH]c2cc(F)c(F)cc12 [Compound 273, N′-(3-benzyl-2-oxo-2,3-dihydro-1,3-benzoxazol-6-yl)-N-(5,6-difluoro-1H-indol-3-yl)ethanediamide]
0.2 to 1 µM | O=C(NCC1CC2C=CC1C2)C(=O)Nc1c[nH]c2cc(F)c(F)cc12 (centres unmarked) [Compound 111]
5 to 100 µM | Cn1cc(NC(=O)C(=O)NCc2ccc(C(F)(F)F)c(Cl)c2)c2cc(F)c(F)cc21 [Compound 170]
0.2 to 1 µM | O=C(Nc1c[nH]c2cc(F)c(F)cc12)C(=O)NC1CCC(Oc2ccc(C(F)(F)F)cc2)C1 (centres unmarked) [Compound 217]
1 to 5 µM | O=C(Nc1c[nH]c2cc(F)c(F)cc12)C(=O)N1CCC(Cc2ccc(C(F)(F)F)cc2)CC1 [Compound 251]
0.2 to 1 µM | O=C(Nc1ccc(C2CCCCC2)nc1)C(=O)Nc1c[nH]c2cc(F)c(F)cc12 [Compound 104]
0.2 to 1 µM | O=C(Nc1ccc2c(cnn2Cc2cccc(F)c2)c1)C(=O)Nc1c[nH]c2cc(F)c(F)cc12 [Compound 262, N-(5,6-difluoro-1H-indol-3-yl)-N′-{1-[(3-fluorophenyl)methyl]-1H-indazol-5-yl}ethanediamide]
0.2 to 1 µM | O=C(NCCC1CC2CCC1C2)C(=O)Nc1c[nH]c2cc(F)c(F)cc12 (centres unmarked) [Compound 190]

EC50 | SMILES
0.2 to 1 µM | O=C(NCC1CCC(F)(F)CC1)C(=O)Nc1c[nH]c2cc(F)c(F)cc12 [Compound 151, N1-(5,6-difluoro-1H-indol-3-yl)-N2-((4,4-difluorocyclohexyl)methyl) oxalamide]
0.04 to 0.2 µM | O=C(NC[C@H]1CC12CCCCC2)C(=O)Nc1c[nH]c2cc(F)c(F)cc12 [Compound 177]
0.2 to 1 µM | COc1ccc(Oc2ccc(NC(=O)C(=O)Nc3c[nH]c4cc(F)c(F)cc34)cc2C)cn1 [Compound 272, N-(5,6-difluoro-1H-indol-3-yl)-N′-{4-[(6-methoxypyridin-3-yl)oxy]-3-methylphenyl} ethanediamide]
0.2 to 1 µM | O=C(NCc1ccc(Cl)cc1C(F)(F)F)C(=O)Nc1c[nH]c2cc(F)c(F)cc12 [Compound 160, N1-(4-chloro-2-(trifluoromethyl)benzyl)-N2-(5,6-difluoro-1H-indol-3-yl)oxalamide]
0.2 to 1 µM | O=C(Nc1c[nH]c2cc(F)c(F)cc12)C(=O)NC1CCN(c2ccccc2)C1 (centres unmarked) [Compound 169]
0.2 to 1 µM | CC(NC(=O)C(=O)Nc1c[nH]c2cc(F)c(F)cc12)c1ccc(C(F)(F)F)cc1 (centres unmarked) [Compound 156, N1-(5,6-difluoro-1H-indol-3-yl)-N2-(1-(4-(trifluoromethyl)phenyl)ethyl) oxalamide]
0.2 to 1 µM | O=C(Nc1c[nH]c2cc(F)c(F)cc12)C(=O)NC1CCC2(CCCCC2)C1 (single isomer, unassigned) [Compound 247]
0.2 to 1 µM | O=C(Nc1ccc(C(F)(F)F)cn1)C(=O)Nc1c[nH]c2cc(F)c(F)cc12 [Compound 101]
0.2 to 1 µM | CN1CCOc2cc(NC(=O)C(=O)Nc3c[nH]c4cc(F)c(F)cc34)ccc21 [Compound 266, N-(5,6-difluoro-1H-indol-3-yl)-N′-(4-methyl-3,4-dihydro-2H-1,4-benzoxazin-7-yl)ethanediamide]
5 to 100 µM | CC(C)(CO)CCCN1CCN(C(=O)C(=O)Nc2c[nH]c3cc(F)c(F)cc23)CC1 [Compound 206]
1 to 5 µM | O=C(NCC12CC3CC(CC(C3)C1)C2)C(=O)Nc1c[nH]c2cc(F)c(F)cc12 [Compound 112]
0.2 to 1 µM | O=C(NCC(=O)N1CCc2ccccc21)C(=O)Nc1c[nH]c2cc(F)c(F)cc12 [Compound 309, N-(5,6-difluoro-1H-indol-3-yl)-N′-[2-(2,3-dihydro-1H-indol-1-yl)-2-oxoethyl] ethanediamide]
1 to 5 µM | O=C(Nc1ccc(-n2cncn2)c(Cl)c1)C(=O)Nc1c[nH]c2cc(F)c(F)cc12 [Compound 265, N′-[3-chloro-4-(1H-1,2,4-triazol-1-yl)phenyl]-N-(5,6-difluoro-1H-indol-3-yl)ethanediamide]
0.2 to 1 µM | O=C(Nc1ccc(OCC(F)(F)F)nc1)C(=O)Nc1c[nH]c2cc(F)c(F)cc12 [Compound 157, N1-(5,6-difluoro-1H-indol-3-yl)-N2-(6-(2,2,2-trifluoroethoxy)pyridin-3-yl) oxalamide]
0.2 to 1 µM | O=C(NCC(c1ccccc1)C(F)F)C(=O)Nc1c[nH]c2cc(F)c(F)cc12 (single isomer, unassigned) [Compound 347]
0.2 to 1 µM | O=C(NCc1ccc(C(F)(F)F)c(Cl)c1)C(=O)Nc1c[nH]c2ccccc12 [Compound 171]
5 to 100 µM | O=C(Nc1c[nH]c2cc(F)c(F)cc12)C(=O)N[C@H]1CC[C@H](Nc2ccccn2)CC1 [Compound 202, N-(5,6-difluoro-1H-indol-3-yl)-N′-[trans-4-(pyridin-2-ylamino)cyclohexyl]ethanediamide]
0.04 to 0.2 µM | CC(NC(=O)C(=O)Nc1c[nH]c2cc(F)c(F)cc12)c1ccc(C(F)(F)F)cc1 (single isomer, unassigned) [Compound 330]
0.2 to 1 µM | CC(C)n1cc(-c2ccc3[nH]cc(NC(=O)C(=O)Nc4ccc(C(F)(F)F)cc4)c3c2)cn1 [Compound 346]
0.2 to 1 µM | O=C(Nc1ccc2c(c1)OC(F)(F)O2)C(=O)Nc1c[nH]c2cc(F)c(F)cc12 [Compound 292, N-(5,6-difluoro-1H-indol-3-yl)-N′-(2,2-difluoro-2H-1,3-benzodioxol-5-yl)ethanediamide]
0.2 to 1 µM | O=C(NCC(=O)N1CCc2cccnc21)C(=O)Nc1c[nH]c2cc(F)c(F)cc12 [Compound 203]
0.2 to 1 µM | O=C(NCc1ccnc(N2CCCCC2)c1)C(=O)Nc1c[nH]c2cc(F)c(F)cc12 [Compound 324]
0.2 to 1 µM | O=C(NCc1ccnc(C(F)(F)F)c1)C(=O)Nc1c[nH]c2cc(F)c(F)cc12 [Compound 342]
